The target in the assay is T1, Regulator of G-protein signaling 19 (Homo sapiens, UniProt P49795).
T1 sequence (P49795 whole entry): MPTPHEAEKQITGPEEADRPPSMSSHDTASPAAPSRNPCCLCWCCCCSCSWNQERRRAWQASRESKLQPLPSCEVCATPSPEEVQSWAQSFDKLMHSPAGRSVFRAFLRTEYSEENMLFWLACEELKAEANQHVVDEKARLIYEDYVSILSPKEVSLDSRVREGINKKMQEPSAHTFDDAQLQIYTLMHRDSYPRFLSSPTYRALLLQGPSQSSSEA
The assay can be described thus: analogs regulating RGS19 interaction with Gαo – biochemical, SAR compounds, multiplexed bead flow cytometry, SAR follow-up (AID 2311).

As for `NS(=O)(=O)c1ccc(N=NCc2ccc(O)c(O)c2O)c([N+](=O)[O-])c1` [4-[[(E)-(2,3-dihydroxy-4-oxo-1-cyclohexa-2,5-dienylidene)methyl]hydrazo]-3-nitrobenzenesulfonamide], the Ki stood at 100 nM.
